Measurements: publication PMC11840788, “3,3′-Diindolylmethane (DIM): A Molecular Scaffold for Inhibition of WWP1 and WWP2, Members of the NEDD4 Family HECT E3 Ligases” (ACS Omega, 2025)
Values joined by “and” are separate entries in the source; they are usually repeats but may differ in a detail not shown here. Identical values can stand only once.

Key:
[1] = molecular target: T1, WWP1 (His-tagged WWP1-L34H) (Homo sapiens, UniProt Q9H0M0); assay: in vitro autoubiquitination assay (single shot and dose dependency), WWP1; type: biochemical
T1 construct: WWP1- 2,3-linker-WW3-WW4-HECT (WWP1-L34H); made in house; host or cells: E. coli BL21-CodonPlus RP (plasmid pET32a-WWP1-L34H, gift of Dr Wenyu Wen)
Method: (§1) A single shot in vitro autoubiquitination assay was performed for I3C, DIM and each of the derivatives against WWP1 and WWP2 using a compound concentration of 1 mM (1% DMSO) (SI Figure S3). […] These active compounds were then subjected to a detailed dose dependency analysis leading to IC50 values. This strategy has previously been employed to screen other WWP1/WWP2 small molecule inhibitors as well as used to assess I3C inhibition toward NEDD4-1.[29],[32] In this way, compounds displaying a relative activity (RA) of less than 50% in the single shot assay were further screened for dose-dependency using a logarithmic concentration range from 10 nM to 1 mM (1% DMSO) (SI Figure S4). […] These were confirmed by counter assays to remove compounds possibly interacting with other enzymes in the assay or interfering with the assay directly (SI Table S1).
(§2) Cell lysate containing His-tagged WWP1-L34H or GST-tagged WWP2-FL proteins were incubated on either 96-well Clear Pierce glutathione or nickel-coated plates for 1 h. Reaction mixtures of either 3 ng/well GST-Uba1 and 15 ng/well UbcH7 or 10 ng/well His-Uba1 and 150 ng/well His-UbcH7 were incubated together in 25 mM Tris pH 8.0, 100 mM NaCl, 4 mM MgCl2 containing 60 ng/well FLAG-ubiquitin and 1.25 mM ATP for 40 min. A prior 1% BSA plate blocking step is required for nickel-coated plates. After plate washing, 2 μL of the compound was added at the desired concentration (1% DMSO) followed by 18 μL of the reaction mixture. This was then incubated for 2 h with 0 and 100% controls before 100 μL of anti-FLAG M2-Peroxidase HRP (1:10,000 PBST) was added to each well and incubated for 1 h. Finally, 100 μL of 1 × TMB substrate solution (Invitrogen) was added to each well and incubated for up to 10 min until sufficient blue color change was observed. To stop the reaction, 100 μL of 1 M HCl was added. For the counter assay, 3 ng/well GST-Uba1 and 200 ng/well UbcH7 were incubated with the other reaction mixture components for 1 h before incubating onto plates for a further 1 h. All other steps were followed. The plates were washed three times with PBST (and 15 mM Imidazole) between each step. Quantification was measured by absorbance read at 450 nm. All assay optimizations were as previously reported.[32] IC50 nonlinear regression curves were calculated in GraphPad v10.2 (Prism). […]
(§3) Auto-ubiquitination Assay
(§4) Cell lysate containing His-tagged WWP1-L34H or GST-tagged WWP2-FL proteins were incubated on either 96-well Clear Pierce glutathione 2 or nickel-coated plates for 1 hour. Reaction mixtures of either 3 ng/well GST-Uba1 and 15 ng/well UbcH7 or 10 ng/well His-Uba1 and 150 ng/well His-UbcH7 were incubated together in 25 mM Tris pH 8.0, 100 mM NaCl, 4 mM MgCl2 containing 60 ng/well FLAG-ubiquitin and 1.25 mM ATP for 40 minutes. A prior 1 % BSA plate blocking step is required for nickel-coated plates. After plate washing, 2 μL of the compound was added at the desired concentration (1 % DMSO) followed by 18 μL of the reaction mixture. This was then incubated for 2 hours with 0% and 100% controls before 100 μL of anti-FLAG M2-Peroxidase HRP (1: 10,000 PBST) was added to each well and incubated for 1 hour.
(§5) Finally, 100 μL of 1 × TMB substrate solution (Invitrogen) was added to each well and […]
(§6) incubated for up to 10 minutes until sufficient blue colour change was observed. To stop the reaction, 100 μL of 1 M HCl was added. For the counter assay, 3 ng/well GST-Uba1 and 200 ng/well UbcH7 were incubated with the other reaction mixture components for 1 hour before incubating onto plates for a further 1 hour. All other steps were followed.
(§7) The plates were washed three times with PBST (and 15 mM Imidazole) between each step. Quantification was measured by absorbance read at 450 nm. All assay optimisations have been previously reported by Watt and colleagues3.
(§8) Relative activity (RA) was determined by comparing the autoubiquitination of the WWP ligases in the presence of each compound, i.e TMB absorbance (450 nm), to the […]

[2] = molecular target: T2, WWP2 (GST-tagged WWP2-FL) (Homo sapiens, UniProt O00308); assay: in vitro autoubiquitination assay (single shot and dose dependency), WWP2; type: biochemical; conditions: single shot, compound at 1 mM (1% DMSO), standardized to 0 and 100% controls
T2 construct: Full- length WWP2 (WWP2-FL); made in house; host or cells: E. coli BL21-CodonPlus RP (plasmid pGEX2T-WWP2-FL, Dr Andrew Chantry's Lab)
Method: as §1, §2, §3, §4, §5, §6, §7, §8

NEDD4-1 = tested on: NEDD4-1; parameters: method as in PMID 27979631; conditions: cited from earlier work
WWP1 HECT domain = tested on: WWP1 HECT domain; parameters: method as in doi:10.1016/j.phytol.2023.01.002; conditions: thermal shift analysis; cited from earlier work

T1 sequence (Q9H0M0 415-922, stated change not applied): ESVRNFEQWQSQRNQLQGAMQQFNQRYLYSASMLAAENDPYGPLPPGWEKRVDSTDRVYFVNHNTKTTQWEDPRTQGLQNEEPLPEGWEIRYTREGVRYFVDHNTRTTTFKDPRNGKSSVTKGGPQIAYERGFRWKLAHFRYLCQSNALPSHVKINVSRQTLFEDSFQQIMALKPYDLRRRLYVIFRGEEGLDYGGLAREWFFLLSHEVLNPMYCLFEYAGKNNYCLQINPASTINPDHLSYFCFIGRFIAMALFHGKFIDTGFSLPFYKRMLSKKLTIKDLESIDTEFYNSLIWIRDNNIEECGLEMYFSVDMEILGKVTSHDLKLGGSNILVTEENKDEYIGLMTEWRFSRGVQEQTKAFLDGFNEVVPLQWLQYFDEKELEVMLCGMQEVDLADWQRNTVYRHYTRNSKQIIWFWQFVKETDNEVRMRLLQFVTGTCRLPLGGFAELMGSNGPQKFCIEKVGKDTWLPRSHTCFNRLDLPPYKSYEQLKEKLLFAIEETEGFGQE
T2 sequence (O00308 whole entry): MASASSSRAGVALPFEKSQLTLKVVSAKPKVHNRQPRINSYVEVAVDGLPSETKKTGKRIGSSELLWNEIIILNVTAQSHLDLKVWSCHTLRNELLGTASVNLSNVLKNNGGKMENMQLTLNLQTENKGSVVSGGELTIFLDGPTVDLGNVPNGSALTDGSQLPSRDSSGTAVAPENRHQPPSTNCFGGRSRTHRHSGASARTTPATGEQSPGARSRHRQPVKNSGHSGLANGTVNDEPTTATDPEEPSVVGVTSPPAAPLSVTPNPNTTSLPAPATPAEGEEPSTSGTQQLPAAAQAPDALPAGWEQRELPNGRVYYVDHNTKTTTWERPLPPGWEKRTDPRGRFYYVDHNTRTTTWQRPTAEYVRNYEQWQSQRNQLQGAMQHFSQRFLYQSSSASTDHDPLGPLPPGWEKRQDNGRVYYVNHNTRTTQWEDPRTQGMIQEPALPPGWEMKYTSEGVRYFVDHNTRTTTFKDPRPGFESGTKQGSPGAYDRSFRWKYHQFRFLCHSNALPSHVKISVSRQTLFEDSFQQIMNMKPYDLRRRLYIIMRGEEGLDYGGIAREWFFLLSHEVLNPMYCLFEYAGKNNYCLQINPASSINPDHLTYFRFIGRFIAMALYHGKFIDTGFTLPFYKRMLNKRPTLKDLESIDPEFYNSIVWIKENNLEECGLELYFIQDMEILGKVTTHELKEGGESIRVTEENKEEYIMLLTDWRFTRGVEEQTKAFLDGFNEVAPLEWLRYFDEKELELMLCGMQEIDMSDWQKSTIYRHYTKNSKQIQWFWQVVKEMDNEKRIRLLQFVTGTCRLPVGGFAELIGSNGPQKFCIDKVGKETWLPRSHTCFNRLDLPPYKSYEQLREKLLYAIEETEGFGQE

OCc1c[nH]c2ccccc12 [Compound I3C, Indole-3-carbinol, reference compound]
inhibition of WWP1 (in words) ([1]; autoubiquitination assay): displayed inhibition
IC50 ([1]; nonlinear regression of RA against log concentration, 1 mM to 10 nM, 1% DMSO): ~1.01 mM and 1.01 mM
WWP1 RA (%) relative activity ([1]; single shot, compound at 1 mM (1% DMSO), standardized to 0 and 100% controls): 48.2 ± 8.6% and 48.2%
WWP2 RA (%) relative activity [2]: 88.0 ± 7.5% and 88.0%
IC50 (NEDD4-1): 0.284 mM
shift in Tm (WWP1 HECT domain): 3.8 °C
